Reference: patent US9512128B2 (BAYER CROPSCIENCE AG, priority 2012, dated 2016)

Assays:
[1] = test system: greenhouse red spider mite (Tetranychus urticae); test: Tetranychus urticae spray test, OP-resistant (TETRUR); assay type: in vivo; details: application rate 500 g/ha, after 6 days, bean leaf discs
In short: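 Bean leaf discs infested with all stages of an OP-resistant strain are sprayed with compound in acetone/DMF with alkylaryl polyglycol ether emulsifier, diluted in water; % mortality after 6 days (100% = all mites killed).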

[2] = log P by HPLC on reversed-phase columns (C 18), EEC directive 79/831 Annex V.A8; assay type: physicochemical
In short: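 Measured by reversed-phase C18 HPLC (LC-MS) with a linear 10→95% acetonitrile gradient. Acidic: pH 2.7, 0.1% formic acid. Neutral: pH 7.8, 0.001 M ammonium bicarbonate.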

[3] = test system: southern root-knot nematode (Meloidogyne incognita); test: Meloidogyne incognita test (MELGIN); assay type: in vivo; details: application rate 20 ppm, after 14 days, lettuce
In short: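 Compound in acetone diluted with water, added to sand with M. incognita egg/larvae suspension and lettuce seeds. Root galls assessed after 14 days; effect in % where 100% means no galls and 0% equals untreated control.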

[4] = test system: green peach aphid (Myzus persicae); test: Myzus persicae spray test (MYZUPE); assay type: in vivo; details: application rate 500 g/ha, after 6 days, Chinese cabbage leaf discs
Procedure: 1. Myzus persicae Spray Test (MYZUPE)
• Solvents: 78 parts by weight of acetone • 1.5 part by weight of dimethylformamide • Emulsifier: 0.5 part by weight of alkylaryl polyglycol ether
To produce a suitable preparation of active compound, 1 part by weight of active compound is mixed with the stated amounts of solvents and emulsifier, and the concentrate is diluted with emulsifier-containing water to the desired concentration.
Discs of Chinese cabbage leaves (Brassica pekinensis) infested by all stages of the green peach aphid (Myzus persicae) are sprayed with an active compound preparation of the desired concentration.
After 6 days, the efficacy in % is determined. 100% here means that all of the aphids have been killed; 0% means that no aphids have been killed.

[5] = test system: cattle ticks (Boophilus microplus); test: Boophilus microplus injection test (BOOPMI Inj); assay type: in vivo; details: 20 μg/animal, injection into the abdomen, assessed after 7 days
Procedure: 6. Boophilus microplus Injection Test (BOOPMI Inj)
• Solvent: dimethyl sulphoxide
To produce a suitable preparation of active compound, 10 mg of active compound are mixed with 0.5 ml of solvent, and the concentrate is diluted with solvent to the desired concentration.
1 μl of the active compound solution is injected into the abdomen of 5 fed adult female cattle ticks (Boophilus microplus). The animals are transferred into dishes and kept in a climate-controlled room.
The activity is assessed after 7 days by laying of fertile eggs. Eggs whose fertility is not visible from the outside are stored in a climate-controlled cabinet until the larvae hatch after about 42 days. An efficacy of 100% means that none of the ticks has laid any fertile eggs; 0% means that all eggs are fertile.

Structure (SMILES): CCn1cnc2c(=O)n(-c3cc(SCC(F)(F)F)c(C)cc3F)cnc21 [Compound 53]
- efficacy in % (spider mites killed) [1]: 90%
- logP[a] ([2]; method [a]): 2.46
- logP[b] ([2]; method [b]): 2.41
- nematicidal effect in % (formation of galls) [3]: 100%
- efficacy in % (aphids killed) [4]: 90%

Structure (SMILES): Cc1cc(F)c(-n2cnc3nn(C)c(C)c3c2=O)cc1[S+]([O-])CC(F)(F)F (stereo not shown) [Compound 172]
- efficacy in % (spider mites killed) [1]: 90%
- efficacy in % (laying of fertile eggs) [5]: 100%
- efficacy in % (aphids killed) [4]: 90%

Structure (SMILES): Cc1cc(F)c(-n2c(C)nc3nn(C)cc3c2=O)cc1[S+]([O-])CC(F)(F)F (stereo not shown) [Compound 175]
- efficacy in % (spider mites killed) [1]: 100%
- efficacy in % (aphids killed) [4]: 100%
